In ChEMBL document CHEMBL1122144, “(+/-)-4-Aryl-4,5-dihydro-3H-1,3-benzodiazepines. 1. Synthesis and evaluation of (+/-)-4,5-dihydro-2,3-dimethyl-4-phenyl-3H-1,3-benzodiazepine and analogues as potential antidepressant agents” (J Med Chem, 1982):

Assays:
Mus musculus [1] = assay: In vivo antidepressant activity assessed by prevention of tetrabenazine-induced ptosis in mice following i.p. administration.; format: functional
Mus musculus [2] = assay: Prevention of amphetamine aggregation toxicity in mice (po); format: functional
Mus musculus [3] = assay: Inhibition of pentylenetetrazole lethality in mice (po); format: functional
Rattus norvegicus [4] = assay: Potentiation of 5-HT induced behavioral syndrome in pargyline-pretreated rats (ip); format: functional
Mus musculus [5] = assay: Prevention of tetrabenazine-induced ptosis in mice (ip); format: functional
Rattus norvegicus [6] = assay: Compound was screened in vivo for antidepressant activity by 5 HTP potentiation method in rat.; format: functional
Mus musculus [7] = assay: In vivo for the inhibition of potentiation of yohimbine -induced toxicity in mouse; format: functional
Mus musculus [8] = organism: Mus musculus; assay: Compound was tested for physostigmine lethality in mouse.; format: functional
Rattus norvegicus [9] = organism: Rattus norvegicus; assay: In vitro inhibition against neuronal uptake of serotonin in whole brain.; format: functional
Mus musculus [10] = assay: Compound was tested in vivo for antagonism of oxotremorine induced -tremors in mouse.; format: functional
Rattus norvegicus [11] = organism: Rattus norvegicus; assay: In vitro inhibition against neuronal uptake of dopamine in striatum.; format: functional
Rattus norvegicus [12] = organism: Rattus norvegicus; assay: In vitro inhibition against neuronal uptake of norepinephrine in whole brain; format: functional
Mus musculus [13] = assay: Compound was tested in vivo for potential antidepressant activity which was assessed by its prevention of tetrabenazine-induced ptosis in mice; format: functional
Mus musculus [14] = assay: Compound was tested in vivo for antagonism of oxotremorine induced salivation in mouse.; format: functional
[15] = Compound was tested in vitro for its ability to displace [3H]quinuclidine benzylate (QNB) from Muscarinic acetylcholine receptor on rat whole brain membranes.; format: cell membranes
Rattus norvegicus [16] = assay: Compound was screened in vivo for antidepressant activity by tryptamine seizure potentiation method in rat.; format: functional
Mus musculus [17] = assay: In vivo inhibition of potentiation of yohimbine -induced toxicity in mouse; format: functional
Rattus norvegicus [18] = organism: Rattus norvegicus; assay: In vitro inhibition against neuronal uptake of dopamine in rat striatum; format: functional
Rattus norvegicus [19] = organism: Rattus norvegicus; assay: In vitro inhibition against neuronal uptake of norepinephrine in rat hypothalamus; format: functional
Rattus norvegicus [20] = assay: Compound was screened in vivo for antidepressant activity by 5 HTP potentiation method in rat; format: functional
Rattus norvegicus [21] = assay: In vivo effective dose for intraperitoneal administration required for the muricidal activity was determined in rat; format: functional; conditions: ip
Rattus norvegicus [22] = organism: Rattus norvegicus; assay: In vitro inhibition against neuronal uptake of norepinephrine in rat whole brain; format: functional
Rattus norvegicus [23] = assay: Compound was tested for beta -adrenergic sensitivity when administered to rats at 10 mg/kg, perorally, twice daily for 10 days.; format: functional; conditions: 240 h, route oral
Rattus norvegicus [24] = assay: Compound was tested in vitro for beta -adrenergic sensitivity and administered to rats at 10 mg/kg, perorally, twice daily for 10 days.; format: functional; conditions: 240 h, route oral
Rattus norvegicus [25] = assay: In vivo for the inhibition of muricidal activity. The effective dose (intraperitoneally) required for the activity was determined in rat; format: functional; conditions: ip
[26] = Mus musculus, ip, read-out: ED50

c1ccc(C2=NC(c3ccccc3)Cc3ccccc3N2)cc1 (stereo not given)
ED50 (Mus musculus [1]; [26]): > 20 mg/kg

CCCN1C(C)=Nc2ccccc2CC1c1ccccc1 (stereo not given)
ED50 (Mus musculus [1]; [26]): > 5 mg/kg

CCC1=Nc2ccccc2CC(c2ccccc2)N1C (stereo not given)
ED50 (Mus musculus [1]; [26]): 0.6 mg/kg

CN1C(c2ccccc2)=Nc2ccccc2CC1c1ccccc1 (stereo not given)
ED50 (Mus musculus [1]; [26]): > 20 mg/kg

CC1=NC(c2ccccc2)Cc2ccccc2N1c1ccccc1 (stereo not given)
ED50 (Mus musculus [1]; [26]): > 20 mg/kg

CC1=NC(c2ccccc2)Cc2ccccc2N1C (stereo not given)
ED50 (Mus musculus [1]; [26]): > 20 mg/kg

CC1=Nc2ccccc2CC(c2ccccc2)N1CC1CCCCC1 (stereo not given)
ED50 (Mus musculus [1]; [26]): ~20 mg/kg

CC1=Nc2ccccc2CC(c2ccccc2)N1Cc1ccccc1 (stereo not given)
ED50 (Mus musculus [1]; [26]): > 20 mg/kg

c1ccc(C2Cc3ccccc3NC(C3CC3)=N2)cc1 (stereo not given)
ED50 (Mus musculus [1]; [26]): > 20 mg/kg

CNC(Cc1ccccc1[N+](=O)[O-])c1ccccc1 (stereo not given)
ED50 (Mus musculus [2]): > 20 mg/kg | ED50 (Mus musculus [3]): > 40 mg/kg | ED50 (Rattus norvegicus [4]): > 10 mg/kg

CC(=O)C(Cc1ccccc1NCN1C(=O)CCC1=O)c1ccccc1 (stereo not given)
ED50 (Mus musculus [2]): > 20 mg/kg | ED50 (Mus musculus [3]): > 40 mg/kg | ED50 (Rattus norvegicus [4]): > 10 mg/kg | ED50 (Mus musculus [5]): > 20 mg/kg

CN1C=Nc2ccccc2CC1c1ccccc1 (stereo not given)
ED50 (Mus musculus [1]; [26]): 9.7 mg/kg

CCN1C(C)=Nc2ccccc2CC1c1ccccc1 (stereo not given)
ED50 (Mus musculus [1]; [26]): ~20 mg/kg

C1=NC(c2ccccc2)Cc2ccccc2N1 (stereo not given)
ED50 (Mus musculus [1]; [26]): ~20 mg/kg

CCCC1=Nc2ccccc2CC(c2ccccc2)N1C (stereo not given)
ED50 (Mus musculus [1]; [26]): > 20 mg/kg

CCC1=NC(c2ccccc2)Cc2ccccc2N1 (stereo not given)
ED50 (Mus musculus [1]; [26]): > 5 mg/kg

CC1=NC(c2ccccc2)Cc2ccccc2N1 (stereo not given)
ED50 (Mus musculus [1]; [26]): > 20 mg/kg

CN1C(C2CC2)=Nc2ccccc2CC1c1ccccc1 (stereo not given)
ED50 (Mus musculus [1]; [26]): > 20 mg/kg

CN(C)CCC=C1c2ccccc2CCc2ccccc21 [AMITRIPTYLINE]
ED50 (Rattus norvegicus [6]): 7.1 mg/kg | ED50 (Mus musculus [7]): 8 mg/kg | ED50 (Mus musculus [8]): 9.6 mg/kg | IC50 (Rattus norvegicus [9]): 2 µM | ED50 (Mus musculus [10]): 1.3 mg/kg | IC50 (Rattus norvegicus [11]): 14 µM | ED50 (Mus musculus [1]; [26]): 1.5 mg/kg | IC50 (Rattus norvegicus [12]): 4.7 µM | ED50 (Mus musculus [13]): 1.9 mg/kg | ED50 (Mus musculus [14]): > 5 mg/kg | IC50 [15]: 3 µM

CC1=Nc2ccccc2CC(c2ccccc2)N1C.Cl (stereo not given) [DAZEPINIL HYDROCHLORIDE]
ED50 (Rattus norvegicus [16]): > 25 mg/kg | ED50 (Mus musculus [17]): 5.9 mg/kg | IC50 (Rattus norvegicus [9]): 8.4 µM | IC50 (Rattus norvegicus [18]): 5.3 µM | ED50 (Mus musculus [10]): > 25 mg/kg | ED50 (Mus musculus [1]): 2.1 mg/kg | ED50 (Mus musculus [1]; [26]): 1.5 mg/kg | IC50 (Rattus norvegicus [19]): 0.9 µM | ED50 (Rattus norvegicus [20]): > 10 mg/kg | ED50 (Rattus norvegicus [21]): > 20 mg/kg | ED50 (Mus musculus [14]): > 25 mg/kg | IC50 (Rattus norvegicus [22]): 1.7 µM | inhibition in vivo at 10 mg/kg (Rattus norvegicus [23]): -44%

CNCCCN1c2ccccc2CCc2ccccc21 [DESIPRAMINE]
ED50 (Rattus norvegicus [16]): > 25 mg/kg | inhibition in vivo at 10 mg/kg (Rattus norvegicus [24]): -50% | ED50 (Rattus norvegicus [25]): 8.2 mg/kg
